The record followed here is patent US9486434B2, “Method for delivery and use of isothiocyanates for prophylaxis and/or therapy of bladder cancer” (Health Research Inc., priority 2010, dated 2016).

For one series, the system named is UM-UC-3 cells. Kind of series: Mitochondria-mediated apoptosis in UM-UC-3 cells (Δψm, cytochrome c, TUNEL). The series is classed as cell-based, human. The procedure:
FIG. 4. Effect of AITC on mitosis, tubulin expression and apoptosis in human bladder cancer UM-UC-3 cells. Cells were treated with vehicle or AITC for 24 h (each numerical value is mean±SD). A. Flow cytometry analysis for cell cycle arrest. B. Wright-Giemsa staining for counting mitotic figures. Arrows point to cells in mitosis or mitotic catastrophe. C. Immunofluorescent staining of microtubules (green color) and DNA staining with DAPI (blue color). D. Western blotting of tubulins (GAPDH as a loading control). E. Loss of mitochondrial transmembrane potential (Δψm) measured by flow cytometry. F. Western blotting of caspase-9 and caspase-3 (GAPDH as a loading control). G. Apoptotic cells (TUNEL cells) measured by flow cytometry. Cells in F and G were co-treated with or without 20 microM Z-LEHD-FMK (a caspase-9 inhibitor).

The conditions of series [1]: female, F344, rat, in vivo. The procedure:
FIG. 7. Pharmacokinetics of AITC in F344 rats. A & B. Five groups of 4-6 female rats were administered a single oral dose of AITC at 10 or 300 micromols/kg and then kept in metabolism cages for urine collection (1 rat/cage) for 1.5, 3, 6, 12 and 24 h. At the end of each time period, blood was drawn from one group of rats, from which plasma was prepared. C. Rats bearing orthotopic bladder tumors, 3 weeks after AY-27 cell inoculation, were administered a single oral dose of AITC at 300 micromols/kg. Orthotopic tumors were removed from the rats at 0 h (T1), 1.5 h (T2), and 6 h (T3) after AITC dosing. Concentrations of AITC equivalent in plasma, urine and tumor tissue homogenates were determined by the cyclocondensation assay developed in our lab. Each value is a mean±SE.
Rats were administered a single oral dose of AITC at 10 or 300 micromols/kg, and urine and blood were collected at several time intervals up to 24 h. Cyclocondensation assay was used for measurement of AITC equivalent in the samples [12]. Oral administration of AITC led to dose-dependent increase in the levels of AITC equivalent in both plasma and urine (FIGS. 7A & 7B). […]
(§1) AITC and NAC-AITC contents in the plasma and urine were determined using the high-performance liquid chromatography (HPLC)-based cyclocondensation assay, and are expressed as AITC equivalent or NAC-AITC equivalent. […]

A short description of another series: 24-h urinary recovery. The series is classed as in vivo. The conditions noted are these: female, F344, rat, urine, po, 300 μmol/kg, single oral dose 300 μmol/kg. How it is done: Measurement of pharmacokinetic profiles of AITC and NAC-AITC. The experiment was carried out in female F344 rats since these animals were used in the rat bladder cancer model described above. Groups of three to five rats (8-9 weeks of age) were given a single oral dose of AITC, NAC-AITC or vehicles. AITC was administered in 0.5 ml of soy oil per rat, whereas NACAITC was dissolved in DMSO and diluted with water and administered in 0.2 ml volume (5% DMSO) per rat. The rats were immediately transferred to metabolism cages (one rat per cage), with free access to food and water, for urine collection over four consecutive periods of 0-1.5, 1.5-3, 3-6 and 6-24 h. […]
as §1
To specifically measure urinary levels of NAC-AITC, groups of five rats were dosed orally with either AITC or NAC-AITC at 300 μmol/kg and immediately moved to metabolism cages (one rat per cage) for 24 h urine collection. […] The compounds were monitored at both 230 nm (AITC) and 254 nm (its metabolites). […] The fraction corresponding to NAC-AITC was collected and quantified by the cyclocondensation assay; its identity was confirmed by infusion electrospray ionization mass spectrometry.

SMILES strings stand for the structures. Where two headings read alike, the source gives them in different places.

Consider `C=CCN=C=S` [AITC, allyl isothiocyanate], for which, in the series with UM-UC-3 cells (24 h, flow cytometry), the TUNEL-positive cells entry is given as “formation of TUNEL-positive cells” and the mitochondrial transmembrane potential result is recorded as “caused a loss of mitochondrial transmembrane potential”. Also, in the series on UM-UC-3 cells (result not shown), the cytochrome c release result is “release of cytochrome c from mitochondria to cytoplasm”. In series [1], the “average 24-h urinary concentration as % of peak urinary concentration” value was 11.6-45.2% and the “average 24-h urinary concentration relative to plasma concentration at 24 h” value was 4,911-14,501 fold higher.

Turning to `C=CCNC(=S)SC[C@H](NC(C)=O)C(=O)O` [NAC-AITC, N-acetyl-S—(N-allylthiocarbamoyl)cysteine], the dose excreted in “24-h urinary recovery” (HPLC fraction, read-out: 24-h urinary recovery, Recovered as NAC-AITC, % of adminstered dose) was 47.3 ± 1.8%; in the series “24-h urinary recovery” (read-out: 24-h urinary recovery, Recovered as NAC-AITC, % of total recovery), 83.3%.
